Experimental data: US4885239A, “Rapid differentiation of bacteria using polyether antibiotics” (Eastman Kodak Company, priority 1986, dated 1989)

Tests used:
[1] = system: viable gram-positive and gram-negative bacteria; test: differentiation of viable gram-positive and gram-negative bacteria (outcome in words); format: cell-based; conditions: RIND IX; Example 7
Procedure: (§1) gram-negative bacteria Enterobacter cloacae (ATCC 23355), Escherichia coli (ATCC 25922), Proteus vulgaris (ATCC 13315), Klebsiella pneumoniae (ATCC 13883) and Pseudomonas aeruginosa (ATCC 27853), and gram-positive bacteria Staphylococcus aureus (ATCC 25923) and Streptococcus pyogenes (ATCC 19615), and brain heart infusion (BHI) broth from Difco Laboratories (Detroit, Mich.),
(§2) Bacterial suspensions were prepared by growing the cells in BHI to stationary phase overnight at 37° C. P. aeruginosa was grown with agitation. About 40 ml of overnight cultures were centrifuged, decanted and washed once with 0.05 molar potassium phosphate buffer or 0.05 molar N-2-hydroxyethylpiperazine-N'-2-ethanesulfonic acid (HEPES) buffer, pH 7.8, and resuspended in buffer.
TERGITOL 7 anionic surfactant was used to differentiate viable bacteria according to the prior art method. Various concentrations of TERGITOL 7 surfactant were mixed with a 10% glucose solution (50 μl), 3-(4,5-dimethyl-2-thiazolyl)-2,5-diphenyl-2N-tetrazolium bromide (MTT) in methanol (25 μl at 5 mg/ml) or a RIND VII dispersion (1.5 ml) and phenazine methosulfate ETA (25 μl at 3 mg/ml methanol). The volume of each test solution was brought to 3 ml with potassium phosphate buffer. A cell suspension (100 μl at about 10^8 cells/ml) was then added. The solutions were incubated at 37° C. for 15 and 30 minutes in the presence of either E. coli, a gram (-) bacterium, or S. aureus, a gram (+) bacterium. The amount of dye formed was then determined visually and graded as follows: 0 indicates no dye formation, +/- indicates faint dye formation, 1+ indicates light dye formation, 2+ indicates moderate dye formation, 3+ indicates strong dye formation, and 4+ indicates very strong dye formation.
Calimycin, a polyether antibiotic, was similarly used with RIND VII in the differentiation of bacteria. Assays were performed as described above, except that 25 μl of 1 molar calcium chloride solution was added to each test solution and the P. aeruginosa response was measured in the presence of 10% yeast extract as the carbon source instead of glucose. The final concentration of calimycin in each test was 10^-3 molar.
The test solutions were prepared by adding the following, in order: 1.2 ml HEPES, 50 μl glucose solution, 1.5 ml RIND VII dispersion, 100 μl antibiotic solution, 100 μl cell suspension and 25 μl ETA solution. Cell control solutions contained all reagents except antibiotics. Background Controls consisted of both buffer and solution controls. The buffer control contained all reagents except antibiotics and cells. The solution control contained all reagents except cells.
(§3) Optical density readings (OD) were made at 635 nm at 0 minutes and after incubation at 37° C. for 30 minutes for all solutions, and the change (ΔOD) was determined. Table V below lists the results expressed as corrected percent inhibition of the reduction of RIND VII. The corrected percent inhibition was calculated by dividing the difference between ΔOD obtained from a Control test without antibiotic and the ΔOD of the test, by the ΔOD of the Control without antibiotic. All readings were corrected by subtracting readings of the appropriate background control.
Relative fluorescence was measured using a standard spectrophotometer modified to read at excitation of 540 nm and emission of 620 nm. The change (Δ) in relative fluorescence was determined after 30 minutes at 37° C. for several concentration levels of antibiotic.
Optical density measurements were obtained at 540 nm using a standard spectrophotometer and the change in optical density (ΔOD) was determined after 30 minutes at 37° C. The resulting data are shown in Table VII below for several concentrations of antibiotic. It is clear from the data that the composition of this example was useful for differentiating bacteria. […]

E. coli (gram -) = test: inhibition of the reduction of RIND IX (Example 7), E. coli; format: cell-based, Escherichia coli (ATCC 25922); conditions: about 1.7×10^-4 molar, calcium chloride, 635 nm, 30 minutes, 37° C.
Procedure: as §1, §2
as §3, with “Table V below lists the results expressed as corrected percent inhibition of the reduction of RIND VII.” left out
(§4) A dispersion of the RIND IX compound was prepared by dissolving the RIND compound in N,N-dimethylformamide (16 mg/ml of solvent acidified with 0.1% concentrated sulfuric acid). […]

S. aureus (gram +) = test: inhibition of the reduction of RIND IX (Example 7), S. aureus; format: cell-based, Staphylococcus aureus (ATCC 25923); conditions: Staphylococcus aureus, 0.5 h, about 1.7×10^-4 molar, calcium chloride, 635 nm, 30 minutes, 37° C., read-out: Corrected Percent Inhibition
Procedure: as §1, §2
as §3, with “Table V below lists the results expressed as corrected percent inhibition of the reduction of RIND VII.” left out
as §4

For `C[C@H](CCC(=O)O)C[C@H](C)C[C@H](C)C(=O)/C=C(\O)[C@H](C)C[C@H](C)C/C=C/[C@@H](C)[C@@H](O)[C@@H](C)[C@@H](O)C[C@@H]1CC[C@@](C)([C@H]2CC[C@@](C)([C@@H](C)O)O2)O1` [ionomycin], the “differentiating gram-positive and gram-negative bacteria” value [1] was “can be used to differentiate gram-positive and gram-negative bacteria”, the “Corrected Percent Inhibition” value (E. coli (gram -)) was “No Inhibition” and the inhibition at 170 µM (S. aureus (gram +)) was 59.7%.
